Laboratory results as given in patent US11377496B2, “Targeting agent antibody conjugates and uses thereof” (The Scripps Research Institute, priority 2013, dated 2022).
“And” between values parts separate entries of the source, which are not always exact repeats. Equal values may be shown once. Read-outs that look alike come from different tables or passages of the source. Where a SMILES comes first, the peptide text is derived from it.

Columns and labels:
[1] = biological target: T1, rhPSMA (Homo sapiens, UniProt Q04609); assay: PSMA inhibition assay; assay type: biochemical; details: for Relative Fluorescence Units: glutamic acid readout, Amplex Red; for RFU: KM measurement
T1 construct: purchased R&D research
Procedure: A 10 mM solution of N-acetyl-aspartyl-glutamate (NAAG) in 40 mM NaOH was diluted to 40 μM in Reaction Buffer (0.1 M Tris-HCl, pH=7.5), and the solution was added to a 384 well plate (10 μL per well). For KM measurements and KM negative controls (absence of PSMA), the NAAG solution was serially diluted 2-fold to obtain final NAAG concentrations ranging […]. […] To initiate reactions, 10 μL of rhPSMA ([…] in Reaction Buffer, R&D research) was added to each well. Reaction Buffer (10 μL) was added to the KM control series. The plate was incubated at 37° C. for 30 min, and then heated to 95° C. for 3 min. Levels of glutamic acid were quantified using Amplex® Red Glutamic Acid/Glutamate Oxidase Assay Kit (Invitrogen). Fluorescence intensities were measured using a SpectraMax Gemini EM microplate reader (GMI) with excitation and emission filters of 545 and 590 nm, respectively. Ki values were calculated using the Cheng-Prusoff equation from IC50 and KM values and these values were calculated using GraphPad Prism software. […] All reported data represent the mean of triplicate experiments.

[2] = Pharmacokinetics in rats, intravenous, sandwich-ELISA; assay type: in vivo, Sprague Dawley rats; details: rat, 0.5 mg/kg
Procedure: We first evaluated the pharmacokinetics of the P-targeting agent antibody conjugate. Male Sprague Dawley rats (Charles River) were injected intravenously at time zero at 1 and 5 mg/kg for P-targeting agent antibody conjugate or 0.5 mg/kg for the unconjugated UCHT1 Fab. Blood was collected at regular intervals to 32 hours and processed to measure drug concentrations using a sandwich-ELISA. […] Also, the small size of P-targeting agent antibody conjugate may be advantageous for penetrating solid tumors.

[3] = test system: C4-2 cells; assay: Prophylactic mouse xenograft model, C4-2 cells mixed with hPBMCs; assay type: in vivo, NOD/SCID mice; details: 2 mg/kg IV daily for 10 days from Day 4; monitored 6 weeks
Procedure: FIG. 12 depicts in vivo efficacy studies of P-targeting agent antibody conjugate. In the prophylactic model, 1×10^6 C4-2 cells were mixed with 2×10^6 PBMCs (1:2 ratio) in Matrigel and injected SC into the right shoulder of male NOD-SCID mice. P-targeting agent antibody conjugate, unconjugated Fab, or PBS (n=6) were administered at 2 mg/kg everyday for 10 days by IV starting on Day 4. Tumors were monitored by external caliper measurements for regular intervals for 6 weeks.
We next established a mouse xenograft model to evaluate the in vivo efficacy of P-targeting agent antibody conjugate. Immunodeficient NOD/SCID mice were subcutaneously injected with a mixture of 1×10^6 C4-2 cells and 2×10^6 hPBMCs in matrigel (BD Bioscience). After 4 days, treatment was initiated by injecting 2 mg/kg of drug via the tail vein and continued for 10 days (n=6). In a control group, mice were injected with an unconjugated mixture of P-Phthal (3) and UCHT1 wild-type Fab, and another group of mice was injected with vehicle alone (n=6). Tumor growth was monitored by external caliper measurement. […] After confirming the prophylactic efficacy of P-targeting agent antibody conjugate, we carried a xenograft model in which we delayed treatment until we observed the formation of a palpable tumor. […]

[4] = test system: C4-2 (PSMA+) cells; assay: In vitro cytotoxicity assays, C4-2 cells with PBMCs, 24 and 48 hours (Example 5); assay type: cell-based, human
Procedure: Peripheral blood mononuclear cells (PBMCs) were purified from fresh healthy human donor blood by conventional Ficoll-Hypaque gradient centrifugation. Purified PBMCs were washed and incubated in flasks in RPMI media with 10% FBS for 1 hours to remove any adherent cells. C4-2 (PSMA+) cells (target cells) were dissociated with 0.05% tryspin/EDTA solution (HyClone) and washed with RPMI with 10% FBS. 1×10^4 target cells were mixed with PBMCs at 1:10 ratio in […], and incubated with different concentrations of conjugated and unconjugated Fabs ([…]) for 24 and 48 hours at 37° C. Cytotoxicity of each well was measured for LDH (lactate dehydrogenase) levels in supernatant using Cytotox-96 non-radioactive cytotoxicity assay kit (Promega). Lysis solution ([…], provided in the same kit) was added to wells with only target cells to get the maximum killing, and spontaneous killing was measured from wells with effector and target cells treated with vehicle ([…]). The absorbance at 490 nm was recorded using SpectraMax 250 plate reader (Molecular Devices Corp.). Percent cytotoxicity was calculated by: % Cytotoxicity=(Absorbanceexpt−Absorbancespontaneous average)/(Absorbancemax killing average−Absorbancespontaneous average)×100

[5] = biological target: CD3 (Macaca fascicularis, UniProt Q95LI5); assay: Cyno cross-reactivity of anti-CD3 antibody; assay type: binding, cynomolgus macaque
[6] = biological target: mPSMA (Mus musculus, UniProt O35409); details: cited from earlier work
[7] = test system: cynoPSMA; details: previous reports; cited from earlier work
[8] = average of three trials, read-out: Average Ki
[9] = enzyme-based inhibition assay, read-out: average Ki

T1 sequence (Q04609 whole entry): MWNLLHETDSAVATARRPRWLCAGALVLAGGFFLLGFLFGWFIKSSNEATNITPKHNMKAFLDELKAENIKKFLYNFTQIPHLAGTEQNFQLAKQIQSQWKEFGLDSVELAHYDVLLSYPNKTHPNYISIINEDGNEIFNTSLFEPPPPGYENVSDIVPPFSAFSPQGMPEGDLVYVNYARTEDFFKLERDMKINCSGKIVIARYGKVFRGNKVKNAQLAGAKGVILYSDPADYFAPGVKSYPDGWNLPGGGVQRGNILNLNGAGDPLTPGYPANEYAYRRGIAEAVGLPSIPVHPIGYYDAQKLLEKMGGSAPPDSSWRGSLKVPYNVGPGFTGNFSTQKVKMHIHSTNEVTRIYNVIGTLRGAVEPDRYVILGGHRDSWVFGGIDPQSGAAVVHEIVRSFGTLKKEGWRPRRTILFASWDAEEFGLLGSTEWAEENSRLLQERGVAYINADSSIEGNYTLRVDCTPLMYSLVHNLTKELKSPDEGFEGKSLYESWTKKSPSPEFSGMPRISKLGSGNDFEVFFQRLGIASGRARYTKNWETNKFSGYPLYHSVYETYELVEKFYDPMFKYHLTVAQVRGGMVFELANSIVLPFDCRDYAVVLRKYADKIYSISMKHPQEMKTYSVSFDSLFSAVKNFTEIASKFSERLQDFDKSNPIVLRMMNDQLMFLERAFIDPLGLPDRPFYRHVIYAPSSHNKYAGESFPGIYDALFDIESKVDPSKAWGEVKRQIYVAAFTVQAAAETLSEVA
CD3, sequence (Q95LI5 22-198): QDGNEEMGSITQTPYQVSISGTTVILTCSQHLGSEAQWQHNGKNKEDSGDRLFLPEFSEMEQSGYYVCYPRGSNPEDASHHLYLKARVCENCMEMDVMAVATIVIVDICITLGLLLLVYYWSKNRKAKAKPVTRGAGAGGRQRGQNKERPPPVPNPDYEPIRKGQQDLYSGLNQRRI
CD3, sequence (Q95LI8 22-171 partner): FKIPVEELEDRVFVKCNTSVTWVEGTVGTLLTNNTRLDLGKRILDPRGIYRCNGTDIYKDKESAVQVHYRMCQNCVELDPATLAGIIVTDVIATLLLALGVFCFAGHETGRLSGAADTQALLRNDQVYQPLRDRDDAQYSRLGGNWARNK
CD3, sequence (Q95LI7 23-181 partner): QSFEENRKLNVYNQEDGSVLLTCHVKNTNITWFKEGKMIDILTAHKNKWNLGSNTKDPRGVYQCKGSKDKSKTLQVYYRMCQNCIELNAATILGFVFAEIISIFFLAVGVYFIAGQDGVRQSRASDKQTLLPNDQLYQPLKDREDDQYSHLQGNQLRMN
mPSMA, sequence (O35409 whole entry): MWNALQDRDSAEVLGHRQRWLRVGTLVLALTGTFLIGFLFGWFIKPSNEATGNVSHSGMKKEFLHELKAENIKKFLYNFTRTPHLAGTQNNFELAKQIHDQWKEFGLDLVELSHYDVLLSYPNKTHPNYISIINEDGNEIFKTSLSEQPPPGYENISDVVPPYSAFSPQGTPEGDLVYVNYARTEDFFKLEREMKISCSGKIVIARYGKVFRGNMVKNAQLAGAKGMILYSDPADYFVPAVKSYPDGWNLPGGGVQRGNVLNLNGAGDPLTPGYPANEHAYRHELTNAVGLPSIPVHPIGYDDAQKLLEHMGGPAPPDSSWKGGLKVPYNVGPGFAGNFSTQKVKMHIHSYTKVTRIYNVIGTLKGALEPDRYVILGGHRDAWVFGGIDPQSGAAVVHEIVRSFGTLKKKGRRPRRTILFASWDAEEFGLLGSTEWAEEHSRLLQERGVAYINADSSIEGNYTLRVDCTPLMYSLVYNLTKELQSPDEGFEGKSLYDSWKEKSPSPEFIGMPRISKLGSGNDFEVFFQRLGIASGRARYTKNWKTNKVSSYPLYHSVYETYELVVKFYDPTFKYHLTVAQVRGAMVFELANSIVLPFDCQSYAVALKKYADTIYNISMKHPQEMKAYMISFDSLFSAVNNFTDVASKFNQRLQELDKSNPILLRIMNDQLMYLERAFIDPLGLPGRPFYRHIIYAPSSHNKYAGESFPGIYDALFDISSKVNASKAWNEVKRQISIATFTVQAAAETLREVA

Row | Compound | Ki [1, 8] | Ki [1, 9] | Relative Fluorescence Units ([1]; inhibitor 0.0000256 μM) | Relative Fluorescence Units ([1]; inhibitor 0.000128 μM) | Relative Fluorescence Units ([1]; inhibitor 0.00064 μM) | Relative Fluorescence Units ([1]; inhibitor 0.0032 μM) | Relative Fluorescence Units ([1]; inhibitor 0.016 μM) | Relative Fluorescence Units ([1]; inhibitor 0.08 μM) | Relative Fluorescence Units ([1]; inhibitor 0.4 μM) | Relative Fluorescence Units ([1]; inhibitor 2 μM) | Relative Fluorescence Units ([1]; inhibitor 10 μM) | Relative Fluorescence Units ([1]; inhibitor 50 μM) | IC50 ([1]; Trials 1-3) | further results
1 | NOCC(=O)NCCOCCOCCOCCNC(=O)c1ccc(C(=O)NCCCCCCc2cn(CCCC[C@H](NC(=O)N[C@@H](CCC(=O)O)C(=O)O)C(=O)O)nn2)cc1 [P-TriA, (S)-2-(3-((S)-5-(4-(6-(4-(1-(aminooxy)-2-oxo-6,9,12-trioxa-3-azatetradecan-14-ylcarbamoyl)benzamido)hexyl)-1H-1,2,3-triazol-1-yl)-1-carboxypentyl)ureido)pentanedioic acid] | 0.00478 nM | 0.0048 nM | 1619 | 1499.6145 | 1259 | 950.487 | 817.1 | 664.949 | 586.721 | 562.9 | 599.969 | 559.8 |  | Ki ([1]; Trials 1-3, Cheng-Prusoff equation from IC50 and KM, read-out: Ki): 0.00613 nM and 0.0023 nM and 0.00591 nM; enhanced affinity ([1]; compared to P-Phthal): more than 400 fold
2 | NOCC(=O)NCCOCCOCCNc1cc(NCCOCCOCCNC(=O)CCCCCCCNC(=O)CCC(NC(=O)NC(CCC(=O)O)C(=O)O)C(=O)O)c([N+](=O)[O-])cc1[N+](=O)[O-] (stereo not drawn) [P-DNP] | 0.0482 nM |  | 1650.519 | 1558 | 1413.9875 | 1123.0625 | 896.8 | 704.2 | 622.7 | 586.843 | 581.8 | 525.6755 | 7.28 nM and 4.46 nM and 4.58 nM | 
3 | wt-UCHT1 |  |  |  |  |  |  |  |  |  |  |  |  |  | circulating half-life [2]: ~1 h; tumor growth (in words) [3]: developed rapid tumors; % Cytotoxicity ([4]; 24 h, 0.0512 pM): −0.1753%; % Cytotoxicity ([4]; 24 h, 0.256 pM): −0.8764%; % Cytotoxicity ([4]; 24 h, 1.28 pM): −0.9115%; % Cytotoxicity ([4]; 24 h, 6.4 pM): −0.4733%; % Cytotoxicity ([4]; 24 h, 32 pM): −0.7537%; % Cytotoxicity ([4]; 24 h, 160 pM): −0.4032%; % Cytotoxicity ([4]; 24 h, 800 pM): 1.192%; % Cytotoxicity ([4]; 24 h, 4000 pM): 1.858%; % Cytotoxicity ([4]; 48 h, 0.01024 pM): −0.609%; % Cytotoxicity ([4]; 48 h, 0.0512 pM): −1.023%; % Cytotoxicity ([4]; 48 h, 0.256 pM): −0.5196%; % Cytotoxicity ([4]; 48 h, 1.28 pM): −0.0812%; % Cytotoxicity ([4]; 48 h, 6.4 pM): −0.4872%; % Cytotoxicity ([4]; 48 h, 32 pM): −1.104%; % Cytotoxicity ([4]; 48 h, 160 pM): −0.9419%; % Cytotoxicity ([4]; 48 h, 800 pM): 4.872%; cyno cross-reactivity (in words) [5]: not sufficiently cyno cross-reactive
4 | NOCC(=O)NCCOCCOCCNC(=O)c1ccc(C(=O)NCCOCCOCCNC(=O)CCCCCCCNC(=O)CCC(NC(=O)NC(CCC(=O)O)C(=O)O)C(=O)O)cc1 (stereo not drawn) [P-Phthal] | 1.98 nM | 2 nM | 1609 | 1592.5445 | 1633.913 | 1542.606 | 1387.603 | 1274 | 1021 | 798.9 | 688.1815 | 581.035 | 208 nM and 397 nM and 223 nM | 
5 | O=C(O)CCC(NC(=O)NC(CCC(=O)O)C(=O)O)C(=O)O (stereo not drawn) [DUPA, 2-[3-(1,3-dicarboxypropy)ureidol]pentanedioic acid] |  |  |  |  |  |  |  |  |  |  |  |  |  | binding to mPSMA (in words) [6]: strongly binds; inhibition of glutamate carboxy peptidase activity of cynoPSMA (in words) [7]: efficiently inhibited
6 | CC(=O)N[C@@H](CC(=O)O)C(=O)N[C@@H](CCC(=O)O)C(=O)O [NAAG, N-acetyl-aspartyl-glutamate, reference compound] (Ac-Asp-Glu-OH) |  |  |  |  |  |  |  |  |  |  |  |  |  | RFU ([1]; NAAG 0.15625 μM): 403; RFU ([1]; NAAG 0.3125 μM): 400.6455; RFU ([1]; NAAG 0.625 μM): 422.2; RFU ([1]; NAAG 1.25 μM): 434.8145; RFU ([1]; NAAG 2.5 μM): 447; RFU ([1]; NAAG 5 μM): 480.622; RFU ([1]; NAAG 10 μM): 549.6; RFU ([1]; NAAG 20 μM): 653.474; Km ([1]; substrate NAAG): 0.288 µM
